According to US11173151B2, “Substituted triazole derivatives and uses thereof” (BAYER AKTIENGESELLSCHAFT, priority 2017, dated 2021):

Columns and labels:
human V1a receptor = molecular target: T1, human V1a receptor (Homo sapiens, UniProt P37288); assay: Cellular in vitro assay for determining vasopressin receptor activity, V1a receptor cell line (CHO, aequorin luminescence); assay type: cell-based; conditions: for IC50: CHO cell line transfected with human V1a receptor, [Arg]-vasopressin at EC50 concentration, read-out: IC50 hV1a; for ratio IC50 hV2/hV1a: selectivity ratio IC50 hV2 / IC50 hV1a
T1 construct: expressed in transfected cells; host or cells: CHO K1 (ATCC), also stably transfected with a modified aequorin
Outline: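 Antagonism is measured in stable CHO K1 transfectants coexpressing the Gαq-coupled receptor and a calcium-sensitive aequorin photoprotein. Agonist challenge uses [Arg]-vasopressin at EC50 after a 10-minute compound exposure; IC50 values come from the luminescence signal.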

human V2 receptor = molecular target: T2, human V2 receptor (Homo sapiens, UniProt P30518); assay: Cellular in vitro assay for determining vasopressin receptor activity, V2 receptor cell line (CHO, CRE-luciferase); assay type: cell-based; conditions: CHO cell line transfected with human V2 receptor; [Arg8]-vasopressin at EC50 concentration, 3 hours; read-out: IC50 hV2
T2 construct: expressed in transfected cells; host or cells: CHO K1 (ATCC) expressing firefly luciferase under a CRE-responsive promoter
T2 sequence (P30518 whole entry): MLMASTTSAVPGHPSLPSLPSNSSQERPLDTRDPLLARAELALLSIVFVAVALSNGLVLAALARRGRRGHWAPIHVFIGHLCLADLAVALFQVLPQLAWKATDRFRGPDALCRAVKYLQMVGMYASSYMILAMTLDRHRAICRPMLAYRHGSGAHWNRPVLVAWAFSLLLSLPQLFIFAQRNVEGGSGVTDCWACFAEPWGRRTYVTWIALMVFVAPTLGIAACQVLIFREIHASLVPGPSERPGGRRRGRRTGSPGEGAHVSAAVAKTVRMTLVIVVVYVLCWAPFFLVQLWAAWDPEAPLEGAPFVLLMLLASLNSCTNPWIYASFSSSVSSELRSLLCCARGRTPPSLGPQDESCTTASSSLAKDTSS

T1 sequence (P37288 whole entry): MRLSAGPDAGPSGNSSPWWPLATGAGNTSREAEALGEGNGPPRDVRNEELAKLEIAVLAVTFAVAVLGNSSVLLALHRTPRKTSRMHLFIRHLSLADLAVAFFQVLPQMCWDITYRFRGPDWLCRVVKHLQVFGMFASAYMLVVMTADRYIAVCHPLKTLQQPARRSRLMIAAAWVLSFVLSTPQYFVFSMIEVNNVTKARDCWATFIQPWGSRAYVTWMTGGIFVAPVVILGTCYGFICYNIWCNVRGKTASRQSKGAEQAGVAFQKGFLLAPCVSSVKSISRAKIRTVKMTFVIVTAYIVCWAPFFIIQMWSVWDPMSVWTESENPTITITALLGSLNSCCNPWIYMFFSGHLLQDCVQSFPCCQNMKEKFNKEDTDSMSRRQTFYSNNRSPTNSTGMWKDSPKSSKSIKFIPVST

Row | SMILES | IC50 (human V1a receptor) [nM] | ratio IC50 hV2/hV1a (human V1a receptor) | IC50 (human V2 receptor) [nM]
1 | O=C(CC1CC1)Nc1ccncc1-n1cnc(Cn2nc(-c3ccc(Cl)cc3)n(C[C@H](O)C(F)(F)F)c2=O)n1 [Example 30, N-{3-[3-({3-(4-Chlorophenyl)-5-oxo-4-[(2S)-3,3,3-trifluoro-2-hydroxypropyl]-4,5-dihydro-1H-1,2,4-triazol-1-yl}methyl)-1H-1,2,4-triazol-1-yl]pyridin-4-yl}-2-cyclopropylacetamide] | 12.8 | 61.0 | 783
2 | O=C(Nc1ccncc1-n1cnc(Cn2nc(-c3ccc(Cl)cc3)n(C[C@H](O)C(F)(F)F)c2=O)n1)C1CC(F)(F)C1 [Example 31, N-{3-[3-({3-(4-Chlorophenyl)-5-oxo-4-[(2S)-3,3,3-trifluoro-2-hydroxypropyl]-4,5-dihydro-1H-1,2,4-triazol-1-yl}methyl)-1H-1,2,4-triazol-1-yl]pyridin-4-yl}-3,3-difluorocyclobutanecarboxamide] | 18.3 | 90.8 | 1670
3 | O=C(Nc1ccncc1-n1cnc(Cn2nc(-c3ccc(Cl)cc3)n(C[C@H](O)C(F)(F)F)c2=O)n1)C1(C(F)(F)F)CC1 [Example 32, N-{3-[3-({3-(4-Chlorophenyl)-5-oxo-4-[(2S)-3,3,3-trifluoro-2-hydroxypropyl]-4,5-dihydro-1H-1,2,4-triazol-1-yl}methyl)-1H-1,2,4-triazol-1-yl]pyridin-4-yl}-1-(trifluoromethyl)cyclopropanecarboxamide] | 5 | 150.7 | 753
4 | O=C(Nc1ccncc1-n1cnc(Cn2nc(-c3ccc(Cl)cc3)n(C[C@H](O)C(F)(F)F)c2=O)n1)[C@@H]1C[C@@H]1F [Example 34, (1S,2S)—N-{t3-[3-({3-(4-Chlorophenyl)-5-oxo-4-[(2S)-3,3,3-trifluoro-2-hydroxypropyl]-4,5-dihydro-1H-1,2,4-triazol-1-yl}methyl)-1H-1,2,4-triazol-1-yl]pyridin-4-yl}-2-fluorocyclopropanecarboxamide] | 13.5 | 92.1 | 1240
5 | O=C(Nc1cccnc1-n1cnc(Cn2nc(-c3ccc(Cl)cc3)n(C[C@H](O)C(F)(F)F)c2=O)n1)C(F)(F)F [Example 36, N-{2-[3-({3-(4-Chlorophenyl)-5-oxo-4-[(2S)-3,3,3-trifluoro-2-hydroxypropyl]-4,5-dihydro-1H-1,2,4-triazol-1-yl}methyl)-1H-1,2,4-triazol-1-yl]pyridin-3-yl}-2,2,2-trifluoroacetamide] | 67.5 | 3.4 | 232
6 | O=C(CC(F)(F)F)Nc1cccnc1-n1cnc(Cn2nc(-c3ccc(Cl)cc3)n(C[C@H](O)C(F)(F)F)c2=O)n1 [Example 37, N-{2-[3-({3-(4-Chlorophenyl)-5-oxo-4-[(2S)-3,3,3-trifluoro-2-hydroxypropyl]-4,5-dihydro-1H-1,2,4-triazol-1-yl}methyl)-1H-1,2,4-triazol-1-yl]pyridin-3-yl}-3,3,3-trifluoropropanamide] | 7.5 | 77.0 | 578
7 | CC(=O)Nc1cccnc1-n1cnc(Cn2nc(-c3ccc(Cl)cc3)n(C[C@H](O)C(F)(F)F)c2=O)n1 [Example 38, N-{2-[3-({3-(4-Chlorophenyl)-5-oxo-4-[(2S)-3,3,3-trifluoro-2-hydroxypropyl]-4,5-dihydro-1H-1,2,4-triazol-1-yl}methyl)-1H-1,2,4-triazol-1-yl]pyridin-3-yl}acetamide] | 4.2 | 52.4 | 220
8 | O=C(CF)Nc1cccnc1-n1cnc(Cn2nc(-c3ccc(Cl)cc3)n(C[C@H](O)C(F)(F)F)c2=O)n1 [Example 39, N-{2-[3-({3-(4-Chlorophenyl)-5-oxo-4-[(2S)-3,3,3-trifluoro-2-hydroxypropyl]-4,5-dihydro-1H-1,2,4-triazol-1-yl}methyl)-1H-1,2,4-triazol-1-yl]pyridin-3-yl}-2-fluoroacetamide] | 23 | 15.7 | 360
9 | COCC(=O)Nc1cccnc1-n1cnc(Cn2nc(-c3ccc(Cl)cc3)n(C[C@H](O)C(F)(F)F)c2=O)n1 [Example 40, N-{2-[3-({3-(4-Chlorophenyl)-5-oxo-4-[(2S)-3,3,3-trifluoro-2-hydroxypropyl]-4,5-dihydro-1H-1,2,4-triazol-1-yl}methyl)-1H-1,2,4-triazol-1-yl]pyridin-3-yl}-2-methoxyacetamide] | 25.5 | 13.7 | 350
10 | O=C(Nc1cccnc1-n1cnc(Cn2nc(-c3ccc(Cl)cc3)n(C[C@H](O)C(F)(F)F)c2=O)n1)C1CC1 [Example 44, N-{2-[3-({3-(4-Chlorophenyl)-5-oxo-4-[(2S)-3,3,3-trifluoro-2-hydroxypropyl]-4,5-dihydro-1H-1,2,4-triazol-1-yl}methyl)-1H-1,2,4-triazol-1-yl]pyridin-3-yl}cyclopropanecarboxamide] | 4.25 | 84.7 | 360
11 | O=C(CC1CC1)Nc1cccnc1-n1cnc(Cn2nc(-c3ccc(Cl)cc3)n(C[C@H](O)C(F)(F)F)c2=O)n1 [Example 46, N-{2-[3-({3-(4-Chlorophenyl)-5-oxo-4-[(2S)-3,3,3-trifluoro-2-hydroxypropyl]-4,5-dihydro-1H-1,2,4-triazol-1-yl}methyl)-1H-1,2,4-triazol-1-yl]pyridin-3-yl}-2-cyclopropylacetamide] | 32 | 49.0 | 1570
12 | O=C(Nc1cccnc1-n1cnc(Cn2nc(-c3ccc(Cl)cc3)n(C[C@H](O)C(F)(F)F)c2=O)n1)C1(C(F)(F)F)CC1 [Example 47, N-{2-[3-({3-(4-Chlorophenyl)-5-oxo-4-[(2S)-3,3,3-trifluoro-2-hydroxypropyl]-4,5-dihydro-1H-1,2,4-triazol-1-yl}methyl)-1H-1,2,4-triazol-1-yl]pyridin-3-yl}-1-(trifluoromethyl)cyclopropanecarboxamide] | 7 | 40.5 | 283
13 | O=C(Nc1cccnc1-n1cnc(Cn2nc(-c3ccc(Cl)cc3)n(C[C@H](O)C(F)(F)F)c2=O)n1)C1CC(F)(F)C1 [Example 48, N-{2-[3-({3-(4-Chlorophenyl)-5-oxo-4-[(2S)-3,3,3-trifluoro-2-hydroxypropyl]-4,5-dihydro-1H-1,2,4-triazol-1-yl}methyl)-1H-1,2,4-triazol-1-yl]pyridin-3-yl}-3,3-difluorocyclobutanecarboxamide] | 7.05 | 79.0 | 557
14 | CS(=O)(=O)CC(=O)Nc1cccnc1-n1cnc(Cn2nc(-c3ccc(Cl)cc3)n(C[C@H](O)C(F)(F)F)c2=O)n1 [Example 49, N-{2-[3-({3-(4-Chlorophenyl)-5-oxo-4-[(2S)-3,3,3-trifluoro-2-hydroxypropyl]-4,5-dihydro-1H-1,2,4-triazol-1-yl}methyl)-1H-1,2,4-triazol-1-yl]pyridin-3-yl}-2-(methylsulfonyl)acetamide] | 4.8 | 230.2 | 1100
15 | CS(=O)(=O)NCC(=O)Nc1cccnc1-n1cnc(Cn2nc(-c3ccc(Cl)cc3)n(C[C@H](O)C(F)(F)F)c2=O)n1 [Example 53, N-{2-[3-({3-(4-Chlorophenyl)-5-oxo-4-[(2S)-3,3,3-trifluoro-2-hydroxypropyl]-4,5-dihydro-1H-1,2,4-triazol-1-yl}methyl)-1H-1,2,4-triazol-1-yl]pyridin-3-yl}-N^2-(methylsulfonyl)glycinamide] | 31.5 | 71.4 | 2250
